Test results reported in PMC11836371, “Virtual fragment screening for DNA repair inhibitors in vast chemical space” (Nature Communications, 2025).
Where “and” joins values, the source holds several entries; their conditions need not be identical. Identical values can stand only once. Like-named read-outs stand apart in the source and are kept apart here.

Columns and labels:
OGG1-GFP in U2OS cells = target: T1, OGG1-GFP in U2OS cells (Homo sapiens, UniProt O15527); experiment: Laser microirradiation assay (OGG1-GFP recruitment to DNA damage sites); assay type: cell-based; conditions: 10uM, single-cell replicate traces
T1 construct: expressed in transfected cells

[1] = Caco-2 cell permeability assay; assay type: in vitro ADME; conditions: human, Caco-2, pH 7.4
Procedure: Prior to the experiment a drug solution of 10 µM was prepared and warmed to 37 °C. The Caco-2 filters were washed with pre-warmed HBSS prior to the experiment, and thereafter the experiment was started by applying the donor solution on the apical or basolateral side. The transport experiments were carried out at pH 7.4 in both the apical and basolateral chamber. The experiments were performed at 37 °C and with a stirring rate of 500 rpm. The receiver compartment was sampled at 15, 30, and 60 min, and at 60 min also a final sample from the donor chamber was taken to calculate the mass balance of the compound. The samples (100 µL) were transferred to a 96-well plate containing 100 µL methanol and Warfarin as IS and was sealed until analyzed by liquid chromatography coupled to triple quadrupole mass spectrometry (LC-MS/MS).

BJhTERT cells = experiment: Cell viability assay (resazurin), BJhTERT non-transformed control; assay type: cell-based; parameters: key to cell viability, cytotoxicity curve (Figure3H): % viability relative to untreated control wells
Procedure: (§1) A2780, HCT116, and HEK293T cell lines were authenticated with STR profiling, frozen down, and these stocks were used in experiments. […] All media were supplemented with 10% FBS and 1% P/S. All cell culture media, additives, and reagents were purchased from Thermo Fisher Scientific. The cell plates were incubated 72 hours in a humidified incubator at 37 °C with 5% CO2, after which resazurin (Sigma-Aldrich), 10 µL/well, was added to a final concentration of 10 µg/mL. […] The cell viability was calculated compared to untreated control wells and the EC50 values were determined in XLfit (IDBS).

[2] = as above; assay type: cell-based; parameters: key to cell viability, cytotoxicity curve (Figure3H): % viability relative to untreated control wells; conditions: human, BJhTERT; for viability at 72 h, 5.12861e-09 M: Log conc. (M) 5.12861e-9; for viability at 72 h, 1.51356e-08 M: Log conc. (M) 1.51356e-8; for viability at 72 h, 4.57088e-08 M: Log conc. (M) 4.57088e-8; for viability at 72 h, 1.38038e-07 M: Log conc. (M) 1.38038e-7; for viability at 72 h, 4.0738e-07 M: Log conc. (M) 4.0738e-7; for viability at 72 h, 1.23027e-06 M: Log conc. (M) 1.23027e-6; for viability at 72 h, 3.31131e-05 M: Log conc. (M) 3.31131e-5; for viability at 72 h, 0.0001 M: Log conc. (M) 0.0001
Procedure: as §1

human OGG1 enzyme = human OGG1 enzyme (Homo sapiens, UniProt O15527); experiment: Differential scanning fluorimetry (DSF) thermal shift assay; assay type: binding; parameters: ∆Tm (K): unit of the concentration uncertain
Procedure: The temperature was increased from 20 °C to 85 °C with 10 readings/degree. Tm values were calculated using an excel template and fitting to the Boltzmann equation in Prism v.6.07 (GraphPad Software).

A549 cells = experiment: Cancer cell viability assay (resazurin), A549; assay type: cell-based; conditions: two independent experiments
Procedure: Three different cancer cell lines A2780 (ovarian cancer, ECACC 93112519), A549 (lung cancer, ATCC 60150896) and HCT116 (colon cancer, ATCC CCL-247), and one immortalized fibroblast cell line (BJhTERT) as control, were seeded in black/clear 384-well plates (Corning #3764), 50 µL/well, containing 11 concentrations, nano-dispensed, dose-response curves of the test compounds. A2780, HCT116, and HEK293T cell lines were authenticated with STR profiling, frozen down, and these stocks were used in experiments. The A2780 cells were cultured in RPMI 1640, the A549 and BJhTERT cells in DMEM, and the HCT116 cells in McCoys 5 A medium. All media were supplemented with 10% FBS and 1% P/S. All cell culture media, additives, and reagents were purchased from Thermo Fisher Scientific. The cell plates were incubated 72 hours in a humidified incubator at 37 °C with 5% CO2, after which resazurin (Sigma-Aldrich), 10 µL/well, was added to a final concentration of 10 µg/mL. The plates were incubated for 6 hours with resazurin followed by fluorescence readings in a Sense plate reader (Hidex), resorufin protocol (ex 544 nm/em 595 nm). The cell viability was calculated compared to untreated control wells and the EC50 values were determined in XLfit (IDBS).

[3] = BJhTERT, Log conc. (M) 1.69824e-9
[4] = BJhTERT, Log conc. (M) 5.12861e-9
[5] = BJhTERT, Log conc. (M) 1.51356e-8
[6] = BJhTERT, Log conc. (M) 4.57088e-8
[7] = BJhTERT, Log conc. (M) 1.38038e-7
[8] = BJhTERT, Log conc. (M) 4.0738e-7
[9] = BJhTERT, Log conc. (M) 1.23027e-6
[10] = BJhTERT, Log conc. (M) 3.71535e-6
[11] = BJhTERT, Log conc. (M) 1.12202e-5
[12] = BJhTERT, Log conc. (M) 3.31131e-5
[13] = BJhTERT immortalized fibroblast cells, read-out: cell viability, cytotoxicity curve (Figure3H)
[14] = read-out: cell viability, cytotoxicity curve (Figure3H)

T1 sequence (O15527 whole entry): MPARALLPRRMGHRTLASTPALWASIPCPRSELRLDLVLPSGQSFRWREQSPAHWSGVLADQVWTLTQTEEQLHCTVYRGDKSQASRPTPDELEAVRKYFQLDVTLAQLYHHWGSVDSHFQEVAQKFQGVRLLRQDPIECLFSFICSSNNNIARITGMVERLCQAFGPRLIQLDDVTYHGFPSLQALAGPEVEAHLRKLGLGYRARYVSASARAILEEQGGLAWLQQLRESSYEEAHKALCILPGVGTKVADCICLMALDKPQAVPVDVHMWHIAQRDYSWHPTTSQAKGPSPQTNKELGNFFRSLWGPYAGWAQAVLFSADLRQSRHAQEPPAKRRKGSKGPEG
human OGG1 enzyme, sequence (O15527 whole entry): as above

O=C(Nc1ccc(I)cc1)N1CCC(n2c(=O)[nH]c3c(Br)cccc32)CC1 [TH5487, reference compound]
OGG1-GFP recruitment to DNA damage sites, intensity normalised to time 0 (Figure3E) (OGG1-GFP in U2OS cells; time 14 s): 1.22 (3×) and 1.25 and 1.18 (2×) and 1.31 and 1.24 and 1.32 (2×) and 1.15 and 1.27 and 1.19 (2×) and 1.28 | OGG1-GFP recruitment to DNA damage sites, intensity normalised to time 0 (Figure3E) (OGG1-GFP in U2OS cells; time 16 s): 1.24 and 1.28 and 1.23 (2×) and 1.18 (2×) and 1.34 and 1.25 and 1.32 and 1.19 and 1.29 and 1.2 and 1.22 and 1.31 and 1.3 | OGG1-GFP recruitment to DNA damage sites, intensity normalised to time 0 (Figure3E) (OGG1-GFP in U2OS cells; time 18 s): 1.25 (2×) and 1.31 (2×) and 1.24 and 1.21 and 1.35 (2×) and 1.26 and 1.18 and 1.2 and 1.3 and 1.22 and 1.23 and 1.33 | OGG1-GFP recruitment to DNA damage sites, intensity normalised to time 0 (Figure3E) (OGG1-GFP in U2OS cells; time 20 s): 1.26 and 1.31 (2×) and 1.24 (3×) and 1.2 and 1.35 and 1.29 and 1.37 and 1.16 and 1.19 and 1.27 and 1.36 and 1.33 | OGG1-GFP recruitment to DNA damage sites, intensity normalised to time 0 (Figure3E) (OGG1-GFP in U2OS cells; time 22 s): 1.27 and 1.32 and 1.28 (3×) and 1.2 and 1.36 and 1.37 (2×) and 1.18 and 1.22 (2×) and 1.34 and 1.25 and 1.35 | OGG1-GFP recruitment to DNA damage sites, intensity normalised to time 0 (Figure3E) (OGG1-GFP in U2OS cells; time 24 s): 1.29 (2×) and 1.32 and 1.25 (2×) and 1.21 and 1.37 (2×) and 1.39 and 1.18 and 1.22 and 1.35 and 1.3 and 1.24 and 1.36 | OGG1-GFP recruitment to DNA damage sites, intensity normalised to time 0 (Figure3E) (OGG1-GFP in U2OS cells; time 26 s): 1.29 (2×) and 1.32 and 1.28 and 1.21 and 1.38 (2×) and 1.4 and 1.19 and 1.22 | Papp A→B at 60 min, 10 µM ([1]; read-out: Papp AB (10–6 cm/s)): 4.16 ×10⁻⁶ cm/s | Papp B→A at 60 min, 10 µM ([1]; read-out: Papp BA (10–6 cm/s)): 4.83 ×10⁻⁶ cm/s | cell viability, cytotoxicity curve (Figure3H) (BJhTERT cells; [3]): 92.09 | cell viability, cytotoxicity curve (Figure3H) (BJhTERT cells; [4]): 85.03 | cell viability, cytotoxicity curve (Figure3H) (BJhTERT cells; [5]): 85.22 | cell viability, cytotoxicity curve (Figure3H) (BJhTERT cells; [6]): 94.5 | cell viability, cytotoxicity curve (Figure3H) (BJhTERT cells; [7]): 96.92 | cell viability, cytotoxicity curve (Figure3H) (BJhTERT cells; [8]): 95.59 | cell viability, cytotoxicity curve (Figure3H) (BJhTERT cells; [9]): 90.96 | cell viability, cytotoxicity curve (Figure3H) (BJhTERT cells; [10]): 95.28 and 121.4 | cell viability, cytotoxicity curve (Figure3H) (BJhTERT cells; [11]): 71.74 and 94.42 | cell viability, cytotoxicity curve (Figure3H) (BJhTERT cells; [12]): 58.03 | cell viability, cytotoxicity curve (Figure3H) (BJhTERT cells; BJhTERT, Log conc. (M) 0.0001): 5.96 | viability at 72 h, 1.69824e-09 M ([2]; BJhTERT immortalized fibroblast cells, Log conc. (M) 1.69824e-9, read-out: cell viability, cytotoxicity curve (Figure3H)): 74.4% | viability at 72 h, 5.12861e-09 M [2, 13]: 72.6% | viability at 72 h, 1.51356e-08 M [2, 13]: 78% | viability at 72 h, 4.57088e-08 M [2, 13]: 84% | viability at 72 h, 1.38038e-07 M [2, 13]: 81.8% | viability at 72 h, 4.0738e-07 M [2, 13]: 80.5% | viability at 72 h, 1.23027e-06 M [2, 13]: 81.8% | viability at 72 h, 3.31131e-05 M [2, 13]: 47% | viability at 72 h, 0.0001 M [2, 13]: 5.37% | ∆Tm (K) (human OGG1 enzyme; 495 µM): 4.3 K | ∆Tm (K) (human OGG1 enzyme; 495 (unit uncertain) as printed in sheet footnote): 4.3 K | ΔTm (human OGG1 enzyme; concentration not given): 4.3 K

Nc1nn(-c2ccc(CC(=O)Nc3noc4c3CCCC4)cc2)c2ccccc12 [compound 11]
percentage cell viability (A549 cells; A549, 100 μM, 100 µM): 21.3% | viability at 100 µM (A549 cells; Homo sapiens, A549, A549, 100 μM, read-out: percentage cell viability): 17.2% | percentage cell viability (BJhTERT cells; BJhTERT, 100 μM, two independent experiments): 40.28% | cell viability, cytotoxicity curve (Figure3H) (BJhTERT cells; [3]): 80.73 and 114.45 | cell viability, cytotoxicity curve (Figure3H) (BJhTERT cells; [4]): 111.95 | cell viability, cytotoxicity curve (Figure3H) (BJhTERT cells; [5]): 93.48 | cell viability, cytotoxicity curve (Figure3H) (BJhTERT cells; [6]): 99.27 | cell viability, cytotoxicity curve (Figure3H) (BJhTERT cells; [7]): 112.5 | cell viability, cytotoxicity curve (Figure3H) (BJhTERT cells; [8]): 95.56 | cell viability, cytotoxicity curve (Figure3H) (BJhTERT cells; [9]): 91.5 | cell viability, cytotoxicity curve (Figure3H) (BJhTERT cells; [10]): 96.04 | cell viability, cytotoxicity curve (Figure3H) (BJhTERT cells; [11]): 108.1 | cell viability, cytotoxicity curve (Figure3H) (BJhTERT cells; [12]): 71.45 | cell viability, cytotoxicity curve (Figure3H) (BJhTERT cells; BJhTERT, Log conc. (M) 0.0001): 40.28 | EC50 (BJhTERT cells; non-transformed cells (BJhTERT), 72 h, read-out: EC50 (loss of viability)): > 70 µM | viability at 72 h, 100 µM ([2]; 100 μM, two independent experiments, read-out: percentage cell viability): 38.2% | viability at 72 h, 5.12861e-09 M [2, 14]: 94.3% | viability at 72 h, 1.51356e-08 M [2, 14]: 81.4% | viability at 72 h, 4.57088e-08 M [2, 14]: 92% | viability at 72 h, 1.38038e-07 M [2, 14]: 101% | viability at 72 h, 4.0738e-07 M [2, 14]: 79.8% | viability at 72 h, 1.23027e-06 M [2, 14]: 87.1% | viability at 72 h, 3.71535e-06 M ([2]; Log conc. (M) 3.71535e-6, read-out: cell viability, cytotoxicity curve (Figure3H)): 84% | viability at 72 h, 1.12202e-05 M ([2]; Log conc. (M) 1.12202e-5, read-out: cell viability, cytotoxicity curve (Figure3H)): 89.3% | viability at 72 h, 3.31131e-05 M [2, 14]: 71% | viability at 72 h, 0.0001 M [2, 14]: 38.2%
